{
  "source": "patent US5846566A",
  "about": "“Microcapsules for the controlled release of acetylsalicylic acid in the gastrointestinal environment” (Flamel Technologies, priority 1993, dated 1998)",
  "key": {"[1]": {"experiment": "acute oral toxicity in rats", "assay_type": "in vivo, rat (Sprague-Dawley)", "settings": "rat, in vivo, 14 days", "experimental": "(§1) The microcapsules of aspirin M1 prepared according to Example 1 were subjected to a toxicological study by comparison with commercial aspirin (CA) in the form of a white powder. The acute toxicity of these two pharmaceutical forms of aspirin was evaluated and compared by oral administration to rats.\n(§2) Each of the two formulations of the product was administered orally to groups of 10 Sprague-Dawley rats (5 males and 5 females) in a volume of 10 ml/kg and in suspension in 0.5% carboxymethyl cellulose. […] All the animals were placed on a water diet before the treatment.\n(§3) The mortality, the general behavior and the weight change of the surviving animals were followed for a period of 14 days after the single administration of the product. An anatomicopathological examination was carried out on each of the animals found dead or sacrificed at the end of the study.\n(§4) The LD50 was calculated by Finney's method."}, "Sprague-Dawley rats": {"tested_on": "Sprague-Dawley rats", "experiment": "acute oral toxicity in rats", "assay_type": "in vivo, rat (Sprague-Dawley)", "experimental": "as §1, §2, §3, §4"}, "serum thromboxane B2": {"tested_on": "serum thromboxane B2", "experiment": "inhibition of serum thromboxane B2 after repeated administration for 28 days", "assay_type": "in vivo, human", "settings": "as from the third day of treatment; 320 mg encapsulated or 350 mg control ASA daily", "experimental": "(§5) Twelve healthy male volunteers were assigned to one or other of the following two treatments according to a randomization schedule obtained by drawing lots. Group A received one 320 mg gelatin capsule of encapsulated ASA (microcapsules M1 of Example 1) orally every morning for 28 days. Group B received 350 mg of non-encapsulated control ASA in solution every morning for 28 days.\nIn both cases, the subjects took the treatments with 200 ml of water.\nSamples (5 cl) for measurement of the serum thromboxane B2 were taken before administration of the daily treatment on D1, D2, D3, D4, D5, D14, D21, D27, D28 and D42.\n(§6) The aspirin and salicylic acid were analyzed using an HPLC method specially developed for assaying low levels in biological media. The serum thromboxane B2 was analyzed using an enzyme immunoassay method described by […] et al. [Analytical Chemistry 57, 1170-1173 (1985); Ann. Biol. Clin. 43, 475-484 (1985)]. For the urine samples, the 11-dehydrothromboxane B2, dinorthromboxane B2 and dinor-6-ketoprostaglandin F1α were analyzed by the method cited above, with prior extraction in the solid phase and purification by thin layer chromatography. This method was validated by gas chromatography coupled with mass spectrometry using a negative ion ionization detector [LELLOUCHE et al., Prostaglandine 40, 297-310 (1990)]."}, "11-dehydrothromboxane B2": {"tested_on": "11-dehydrothromboxane B2", "experiment": "inhibition of urinary 11-dehydrothromboxane B2, repeated administration", "assay_type": "in vivo, human", "settings": "28 days; 320 mg encapsulated or 350 mg control ASA daily", "experimental": "as §5\n(§7) During each period, urine samples were taken from each subject for assaying the creatininuria and measuring the platelet and vascular prostaglandins.\n(§8) The morning urine was collected at 7 am on days D1, D2, D14, D27 and D28. The subjects were asked to empty their bladder between midnight and 1 am and then not to urinate again until the morning so that the 6-hour urine could be obtained. The morning urination was performed before the subjects got up. Of each sample collected: […]\nas §6, with “Biol. Clin. 43, 475-484 (1985)].” left out, “This method was validated by gas chromatography coupled with mass spectrometry using a negative ion ionization detector [LELLOUCHE et al., Prostaglandine 40, 297-310 (1990)].” left out"}, "[2]": {"tested_on": "urinary dinorthromboxane B2", "experiment": "inhibition of urinary dinorthromboxane B2, repeated administration", "assay_type": "in vivo, human", "settings": "28 days; 320 mg encapsulated or 350 mg control ASA daily", "experimental": "as §5, §7, §8\nas §6, with “Biol. Clin. 43, 475-484 (1985)].” left out, “This method was validated by gas chromatography coupled with mass spectrometry using a negative ion ionization detector [LELLOUCHE et al., Prostaglandine 40, 297-310 (1990)].” left out"}, "prostacycline": {"tested_on": "prostacycline", "experiment": "inhibition of prostacycline (urinary dinor-6-ketoprostaglandin F1α), repeated administration", "assay_type": "in vivo, human", "settings": "28 days; 320 mg encapsulated or 350 mg control ASA daily", "experimental": "as §5, §7, §8\nas §6, with “Biol. Clin. 43, 475-484 (1985)].” left out, “This method was validated by gas chromatography coupled with mass spectrometry using a negative ion ionization detector [LELLOUCHE et al., Prostaglandine 40, 297-310 (1990)].” left out"}, "[3]": {"tested_on": "thromboxane B2 of renal origin", "experiment": "urinary excretion of thromboxane B2 (renal origin), repeated administration", "assay_type": "in vivo, human", "settings": "28 days; 320 mg encapsulated or 350 mg control ASA daily", "experimental": "as §5, §7\n(§9) The morning urine was collected at 7 am on days D1, D2, D14, D27 and D28. The subjects were asked to empty their bladder between midnight and 1 am and then not to urinate again until the morning so that the 6-hour urine could be obtained. The morning urination was performed before the subjects got up. Of each sample collected:\n(§10) 40 ml were transferred to two appropriately labeled 20 ml polypropylene tubes, which were then frozen immediately at -20° C.\n(§11) Thromboxane B2 and 6-ketoprostaglandin F1α are metabolites of […] of renal origin."}, "6-ketoprostaglandin F1α": {"tested_on": "6-ketoprostaglandin F1α", "experiment": "urinary excretion of 6-ketoprostaglandin F1α (renal origin), repeated administration", "assay_type": "in vivo, human", "settings": "28 days; 320 mg encapsulated or 350 mg control ASA daily", "experimental": "as §5, §7, §9, §10, §11"}, "thromboxane": {"tested_on": "thromboxane", "settings": "daily dose; very substantially below the minimum percentage; cited from earlier work"}, "vascular prostacycline": {"tested_on": "vascular prostacycline", "settings": "daily dose; cited from earlier work"}},
  "data": [
    {"smiles": "CC(=O)Oc1ccccc1C(=O)O", "note": "[CA, acetylsalicylic acid]", "values": [
      {"measurement": "LD50 at 336 h", "setting": "[1]", "value": 1430, "unit": "mg/kg"},
      {"measurement": "autopsy findings", "setting": "Sprague-Dawley rats; 740 and 1110 mg/kg", "value": "no macroscopic anomalies"},
      {"measurement": "autopsy findings", "setting": "Sprague-Dawley rats; 1670 and 2500 mg/kg, animals found dead", "value": "abnormally blackish coloration of the liver, a discoloration with wall thickening in the digestive tract (intestines and stomach) and reddish petechiae in the stomach"},
      {"measurement": "weight change", "setting": "Sprague-Dawley rats; CA 740-2500 mg/kg (between day 1 and day 5), CRA 2500 mg/kg (throughout the study)", "value": "slight drop in the weight gain, related to the dose administered"},
      {"measurement": "general behavior", "setting": "Sprague-Dawley rats; CA 740-2500 mg/kg, CRA 2500 mg/kg", "value": "a drop in the spontaneous activity, related to the dose administered, and piloerection"},
      {"measurement": "LD50, lower limit of the confidence interval", "setting": "Sprague-Dawley rats; probability threshold of 95%", "value": 936, "unit": "mg/kg"},
      {"measurement": "LD50, upper limit of the confidence interval", "setting": "Sprague-Dawley rats; probability threshold of 95%", "value": 2394, "unit": "mg/kg"}
    ]},
    {"smiles": "CC(=O)Oc1ccccc1C(=O)O", "note": "[control ASA, acetylsalicylic acid]", "values": [
      {"measurement": "inhibition of thromboxane originating from the platelets", "setting": "serum thromboxane B2", "value": 98.15, "unit": "%"},
      {"measurement": "inhibition of urinary metabolite of thromboxane (11-dehydrothromboxane B2, first value pair)", "setting": "11-dehydrothromboxane B2", "value": 75.6, "unit": "%"},
      {"measurement": "inhibition of urinary metabolite of thromboxane (dinorthromboxane B2, second value pair)", "setting": "[2]", "value": 68.9, "unit": "%"},
      {"measurement": "inhibition of the prostacycline", "setting": "prostacycline", "value": 43.2, "unit": "%"},
      {"measurement": "inhibition of prostaglandins of renal origin (thromboxane B2, first value pair)", "setting": "[3]", "value": 42.8, "unit": "%"},
      {"measurement": "inhibition of prostaglandins of renal origin (6-ketoprostaglandin F1α, second value pair)", "setting": "6-ketoprostaglandin F1α", "value": 34.6, "unit": "%"}
    ]},
    {"smiles": "CC(=O)Oc1ccccc1C(=O)O", "note": "[conventional aspirin, acetylsalicylic acid]", "values": [
      {"measurement": "thromboxane inhibition", "setting": "thromboxane", "value": "< 95", "unit": "%"},
      {"measurement": "inhibition of vascular prostacycline", "setting": "vascular prostacycline", "value": 25, "unit": "%"}
    ]}
  ]
}
